{"source": "paper PMC11352932", "about": "“Enhancing Maturation and Translatability of Human Pluripotent Stem Cell-Derived Cardiomyocytes through a Novel Medium Containing Acetyl-CoA Carboxylase 2 Inhibitor” (Cells, 2024)", "key": {"[1]": {"tested_on": "IK1, encoded by Kir channels", "assay": "Block of inward current in voltage-clamp", "format": "cell-based, human", "details": "hiPSC-CMs cultured in maturation medium", "method": "All recordings were performed at RT.\nCells were superfused with an extracellular solution containing (mM) NaCl 136.8, KCl 4, HEPES 10, CaCl2 2, MgCl2 1, and Glucose 10 (pH adjusted to 7.2 with NaOH) for AP recording and K^+ current whole-cell recording. For whole-cell recording of Na^+ and Ca^2+ currents, the following extracellular solution was used (mM): NaCl 40, KCl 4, NMDG 96.8, HEPES 10, CaCl2 2, MgCl2 1, and Glucose 10 (pH adjusted to 7.2 with HCl); 1 mM of CdCl2 was also added to block L-type Ca^2+ currents when recording Na^+ currents.\nPatch pipettes contained (mM): KCl 150, HEPES 10, EGTA 10, and MgATP 2 (pH adjusted to 7.2 with KOH). For AP recording, perforated patch recording was used, and pipettes were backfilled with a solution containing 50 μg/mL gramicidin (diluted from a 50 mg/mL gramicidin DMSO stock solution). A stock solution of ivabradine was prepared with DMSO. All stock solutions were diluted ≥1:1000 in extracellular solution before use."}, "[2]": {"tested_on": "iPSC C32 CMs", "assay": "Calcium imaging, Fluo-4, with and without isoproterenol", "format": "cell-based, human", "method": "(§1) iPSC C32-derived CMs were mounted on glass-bottom organ dishes (MatTek, P35G-1.5-14-c) coated with matrigel and incubated with Fluo-4 (Molecular Probes) at 5 µM for 30 min. Fluo-4 was washed in Tyrode’s solution for 30 min before imaging. Cells were placed in Tyrode’s solution containing CaCl2: 1.8 mM; NaCl: 130 mM; KCl: 5.4 mM; HEPES: 25 mM; MgCl2·6H2O: 0.5 mM; NaH2PO4: 0.4 mM; pH 7.4 at 37 °C for imaging. CMs were paced at 1 Hz and live imaging was recorded at 98 fps using a Nikon Eclipse with a Yokogawa CSU-X1 spinning disk and an EM-CCD Andor camera for high-speed acquisition. Individual whole-cell calcium transient intensities were analyzed in R software (V4.3.1). iCell CMs^2 were plated in 96-well CellCarrier Ultra Phenoplates (PerkinElmer) coated with fibronectin and stained with the EarlyTox^TM Cardiotoxicity kit (Molecular Devices, San Jose, CA, USA), following the manufacturer’s recommendations. Calcium transients were analyzed in the FDSS/µCell system (Hamatsu Photonics, Hamamatsu, Japan). Data were analyzed using FDSS Wavefront Analysis Software (V.1.2.2E). Isoproterenol was used at a final concentration of 1 µM. Calcium transients are calculated as ∆F/F0, with signal leveling and background normalization, where F0 is background fluorescence and F is fluorescence intensity. For each cell, amplitude (peak intensity), upstroke velocity, decay velocity, and peak width at 70% duration (PWD70%) were calculated.\nHiPSC-C32 CMs cultured in\nData are presented as mean\nE. Representative fluorescent images\nACC2i, and maturation medium. Scale bars: 20µm.\nFigure S6. Maturation medium enhances response to hERG blockers. AP recordings were obtained […]\nantiarrhythmic known to specifically block hERG."}, "[3]": {"tested_on": "hiPSC-CMs", "assay": "In vitro hypertrophy model, ET-1 stimulation", "format": "cell-based, human", "details": "10 nM ET-1, 48 h", "method": "After 2 weeks in either standard or maturation media, medium was switched to hypertrophy stimulation medium composed of RPMI no glucose supplemented with B27 plus insulin, 5.5 mM glucose and 10 nM endothelin-1 (ET-1, E7764). hPSC-CMs were cultured for 48 h in this medium before their use for further analyses.\nCell area, circularity index, and aspect ratio were determined with FIJI (ImageJ v.2.14.0) software using standard analysis plugins. For each condition, at least 60 cells were analyzed.\nRNA extraction was performed using the Agencourt RNAdvance Cell V2 kit (catalog no. A47942, Beckman Coulter, Bromma, Sweden) according to the manufacturer’s instructions. RNA quality was assessed using the Fragment Analyzer Standard Sensitivity RNA kit from Agilent Technologies, ensuring an RNA integrity number greater than 7. Library preparation for iCell cardiomyoctes^2 and Chips22 derived CMs was performed at the NGI (National Genomic Infrastructure, KTH, Stockholm, Sweden) using the Illumina TruSeq stranded mRNA library preparation kit. Clustering was conducted by ‘cBot’, and sequencing was performed on a NovaSeq 6000 (NovaSeq Control Software 1.6.0/RTA v3.4.4) with a 2 × 150 setup using the ‘NovaSeqXp’ workflow in the ‘S4’ flowcell. […] Sequenced reads were quality-controlled with the FastQC software and pre-processed with Trim Galore. Processed reads from iCell cardiomyocytes^2 and Chips22 were aligned to the reference genome GRCh37 with the STAR aligner, and Tophat2 with Bowties was used to map IPS C32 reads to GRCh38. Read counts for the genes were generated using the featureCounts library and normalized FPKM values calculated with StringTie. […]\nDifferences in gene expression were identified using the DESeq2 method. The analysis was based on read counts, which are required to assess the measurement precision accurately. […]"}, "[4]": {"tested_on": "ACC2", "design": "method as in PMID 12842871", "details": "ACC2 isoform; cited from earlier work"}, "[5]": {"tested_on": "ACC1", "design": "method as in PMID 12842871", "details": "ACC1 isoform; cited from earlier work"}, "[6]": {"tested_on": "iCell CMs^2", "assay": "Calcium transients, EarlyTox dye, FDSS", "format": "cell-based, human", "details": "maturation medium vs maturation medium without ACC2i", "method": "as §1"}, "[7]": {"tested_on": "hiPSC-CMs", "assay": "Seahorse bioenergetics (Mito Stress test, etomoxir FAO)", "format": "cell-based, human", "details": "maturation medium versus maturation medium without ACC2i", "method": "The Seahorse XF96 extracellular flux analyzer (Agilent, Santa Clara, CA, USA) was used to assess mitochondrial function. Seahorse plates were coated with fibronectin, and hiPSC-CMs were seeded onto the plates at a density of 30,000 cells per well. Culture medium was exchanged for Agilent Seahorse XF RPMI Basal Medium supplemented with 5.5 mM glucose, 2 mM glutamine, 150 µM sodium pyruvate, 100 µM Palmitate/BSA, and 5 mM Hepes, 1 h before the assay and for the duration of the measurement. For the Mito Stress test, mitochondria inhibitors were injected during the measurements as follows: Oligomycin (2 µM), 2.4-Dinitrophenol (DNP, 225 µM), rotenone, and antimycin A (both at 1.11 µM). The oxygen consumption rate (OCR) and extracellular acidification rate (ECAR) values were normalized to the number of nuclei per well quantified by Hoechst staining and fluorescence imaging. The baseline OCR was defined as the average values measured from time points 2 to 4 during the experiments subtracting the non-mitochondrial oxygen consumption rate determined as the minimum rate measurement after rotenone/antimycin A injection. Spare respiratory capacity was calculated as the difference between uncoupler DNP and baseline OCR values. ATP production was calculated by subtracting the minimum rate measurement after Oligomycin injection from the last rate measurement before Oligomycin injection. Proton leak was calculated by subtracting non-mitochondrial OCR from the minimum rate measurement after Oligomycin injection. Lastly, oxidation of exogenous FA was measured after injection of 50 µM Etomoxir. OCR due to FA oxidation was determined by subtracting the minimum rate measurement after Etomoxir injection from the last rate measurement before Oligomycin injection. All wells with a basal respiratory rate below 40 pmol/min were excluded from analysis."}, "[8]": {"tested_on": "hiPSC-CMs", "assay": "hiPSC-CM viability by number of nuclei", "format": "cell-based, human", "details": "number of nuclei after 7 days in culture", "method": "We initially investigated the impact of increasing concentrations of the ACC inhibitor CP640186 (hereafter referred to as ACC2i, given the predominant expression of ACC2 in CMs) on hiPSC-CM viability. […] Based on these initial results, a concentration of 5 uM was selected for further examination of the role of ACC2i in improving hiPSC-CM maturation.\nFigure S1. ACC2 inhibition enhances fatty acid oxidation. Increasing concentrations of ACC2 inhibition are toxic for hiPSC-CMs at concentrations exceeding 5uM. A. Schematic showing signaling cascade and mode of action of acetyl-CoA carboxylase (ACC). There are 2 ACC isoforms: ACC1 in cytosol that is dedicated to the rate limiting step of de novo lipogenesis, and ACC2 a mitochondrial membrane […]\npalmitoyltransferase (CPT-1), responsible for long-chain fatty-acid transport into mitochondria.\nCombined ACC1 and 2 inhibition is expected to reduce malonyl-CoA levels and de-novo lipogenesis, and to enhance CPT-1 activity and fatty acid oxidation (FAO). G-6-P (glucose-6-phosphate), TCA cycle (tricarboxylic acid cycle), ETC (electron transport chain). B. Impact of increasing doses of ACC2i on hiPSC-CMs viability assessed by number of nuclei after 7 days in culture.\nACC2i concentrations higher than 5 µm. Source of mitochondria image: Servier Medical Art. Statistical […]\n(1 picture or pasted object on this page, not shown here)"}, "[9]": {"details": "1 µM isoproterenol, maturation medium compared to maturation medium without ACC2i"}}, "note": "Positions of bridges follow the written chain, without caps; N, C: chain ends. No end group written: not given here."}
{"compound": "COc1cc2c(cc1OC)CC(=O)N(CCCN(C)C[C@H]1Cc3cc(OC)c(OC)cc31)CC2", "note": "[ivabradine]", "values": [{"measurement": "block of inward current", "setting": "[1]; 10 µM ivabradine", "value": "~ 5%"}]}
{"compound": "CC(C)NCC(O)c1ccc(O)c(O)c1", "note": "(centres unmarked) [isoproterenol]", "values": [{"measurement": "increase in amplitude upon stimulation", "setting": "[2]; [9]", "value": "significantly higher increase"}, {"measurement": "increase in beat rate upon stimulation", "setting": "[2]; [9]", "value": "significantly higher increase"}]}
{"compound": "endothelin-1 (CSCSSLMDKECVYFCHLDIIW; disulfide 1-15, 3-11; ends not checked; UniProt P05305 53-73, looked up) [ET-1]", "values": [{"measurement": "structural changes", "setting": "[3]; cells cultured in standard medium", "value": "no significant structural changes"}, {"measurement": "cell area", "setting": "[3]; maturation medium group", "value": "trend towards increased"}, {"measurement": "length-to-width ratio", "setting": "[3]; maturation medium group", "value": "significant decrease"}]}
{"compound": "O=C(c1c2ccccc2cc2ccccc12)N1CCC(N2CCC[C@@H](C(=O)N3CCOCC3)C2)CC1", "note": "[CP-640186]", "values": [{"measurement": "IC50", "setting": "[4]", "value": "~55", "unit": "nM"}, {"measurement": "calcium transient amplitude and kinetics", "setting": "[2]; with ACC2i vs without", "value": "significantly improved"}, {"measurement": "IC50", "setting": "[5]", "value": "~55", "unit": "nM"}, {"measurement": "calcium transient duration", "setting": "[6]", "value": "reduction"}, {"measurement": "calcium uptake and decay kinetics", "setting": "[6]", "value": "significant enhancement"}, {"measurement": "transient calcium amplitude", "setting": "[6]", "value": "no change"}, {"measurement": "FAO reliance (change in basal respiration upon etomoxir)", "setting": "[7]", "value": "significantly increased"}, {"measurement": "increase in reserve capacity", "setting": "[7]; 5 µM ACC2i", "value": 1.7, "unit": "fold"}, {"measurement": "reduction in energy dissipation through proton leak", "setting": "[7]; 5 µM ACC2i", "value": 2.5, "unit": "fold"}, {"measurement": "ACC2i concentration resulting in a decrease in the number of nuclei (potential cardiac toxicity)", "setting": "[8]", "value": "exceeding 5 uM"}]}
{"compound": "[Ba+2].[Cl-].[Cl-]", "note": "[Ba^2+, BaCl2]", "values": [{"measurement": "block of inward current", "setting": "[1]; 100 µM Ba2+", "value": "> 90", "unit": "%"}]}
